# Experimental data as given in PubChem BioAssay (NCI).
#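 Compound exposure: 48 hours, 5 concentrations, 96-well plates. TGI: total growth inhibition.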
# Tests used:
# Assay in all cases: NCI-60 cell line screen, 48 h
# TK-10 renal = test system: TK-10 renal
# NCI-H522 lung = test system: NCI-H522 lung
# SF-295 CNS = test system: SF-295 CNS
# SN12C renal = test system: SN12C renal
# OVCAR-4 ovarian = test system: OVCAR-4 ovarian
# SF-268 CNS = test system: SF-268 CNS
# MCF7 breast = test system: MCF7 breast
# HS 578T breast = test system: HS 578T breast
# EKVX NSCLC = test system: EKVX NSCLC
# NCI/ADR-RES ovarian = test system: NCI/ADR-RES ovarian
# LOX IMVI melanoma = test system: LOX IMVI melanoma
# IGROV1 ovarian = test system: IGROV1 ovarian
# UO-31 renal = test system: UO-31 renal
# HL-60(TB) leukemia = test system: HL-60(TB) leukemia
# MDA-MB-435 = test system: MDA-MB-435
# HCC-2998 colon = test system: HCC-2998 colon
# M14 melanoma = test system: M14 melanoma
# A549 NSCLC = test system: A549 NSCLC
# NCI-H460 lung = test system: NCI-H460 lung
# HT29 colon = test system: HT29 colon
# U251 CNS = test system: U251 CNS
# MALME-3M melanoma = test system: MALME-3M melanoma
# PC-3 prostate = test system: PC-3 prostate
# MDA-MB-231 breast = test system: MDA-MB-231 breast
# OVCAR-3 ovarian = test system: OVCAR-3 ovarian
# SK-MEL-2 melanoma = test system: SK-MEL-2 melanoma
# A498 renal = test system: A498 renal
# NCI-H23 lung = test system: NCI-H23 lung
# CAKI-1 renal = test system: CAKI-1 renal
# KM12 colon = test system: KM12 colon
# CCRF-CEM leukemia = test system: CCRF-CEM leukemia
# ACHN renal = test system: ACHN renal
# UACC-257 melanoma = test system: UACC-257 melanoma
# SR leukemia = test system: SR leukemia
# BT-549 breast = test system: BT-549 breast
# HCT-116 colon = test system: HCT-116 colon
# K-562 leukemia = test system: K-562 leukemia
# OVCAR-8 ovarian = test system: OVCAR-8 ovarian
# RPMI-8226 leukemia = test system: RPMI-8226 leukemia
# DU-145 prostate = test system: DU-145 prostate
# SW-620 colon = test system: SW-620 colon
# SK-MEL-28 melanoma = test system: SK-MEL-28 melanoma
# HCT-15 colon = test system: HCT-15 colon
# OVCAR-5 ovarian = test system: OVCAR-5 ovarian
# 786-0 renal = test system: 786-0 renal
# HOP-92 NSCLC = test system: HOP-92 NSCLC
# MDA-N = test system: MDA-N
# SNB-19 CNS = test system: SNB-19 CNS
# HOP-62 NSCLC = test system: HOP-62 NSCLC
# MOLT-4 leukemia = test system: MOLT-4 leukemia
# SK-OV-3 ovarian = test system: SK-OV-3 ovarian
# UACC-62 melanoma = test system: UACC-62 melanoma
# SF-539 CNS = test system: SF-539 CNS
# SNB-75 CNS = test system: SNB-75 CNS
# SK-MEL-5 melanoma = test system: SK-MEL-5 melanoma
# COLO 205 colon = test system: COLO 205 colon
# RXF 393 renal = test system: RXF 393 renal
# NCI-H226 lung = test system: NCI-H226 lung
smiles,measurement,setting,value
COc1nc(SC)nc2c1C(O)n1c(nc3ccccc31)S2 (stereo not drawn),TGI,TK-10 renal,97.7 µM
same,TGI,NCI-H522 lung,69.1 µM
same,TGI,SF-295 CNS,59.6 µM
same,TGI,SN12C renal,> 100 µM
same,TGI,OVCAR-4 ovarian,44.4 µM
same,TGI,SF-268 CNS,> 100 µM
same,TGI,MCF7 breast,91.2 µM
same,TGI,HS 578T breast,50.7 µM
same,TGI,EKVX NSCLC,> 100 µM
same,TGI,NCI/ADR-RES ovarian,94.9 µM
same,TGI,LOX IMVI melanoma,> 100 µM
same,TGI,IGROV1 ovarian,> 100 µM
same,TGI,UO-31 renal,16.8 µM
same,TGI,HL-60(TB) leukemia,60.5 µM
same,TGI,MDA-MB-435,> 100 µM
same,TGI,HCC-2998 colon,> 100 µM
same,TGI,M14 melanoma,> 100 µM
same,TGI,A549 NSCLC,> 100 µM
same,TGI,NCI-H460 lung,> 100 µM
same,TGI,HT29 colon,> 100 µM
same,TGI,U251 CNS,96.8 µM
same,TGI,MALME-3M melanoma,> 100 µM
same,TGI,PC-3 prostate,> 100 µM
same,TGI,MDA-MB-231 breast,> 100 µM
same,TGI,OVCAR-3 ovarian,85.7 µM
same,TGI,SK-MEL-2 melanoma,> 100 µM
same,TGI,A498 renal,39.4 µM
same,TGI,NCI-H23 lung,95.4 µM
same,TGI,CAKI-1 renal,> 100 µM
same,TGI,KM12 colon,> 100 µM
same,TGI,CCRF-CEM leukemia,22.3 µM
same,TGI,ACHN renal,39.9 µM
same,TGI,UACC-257 melanoma,> 100 µM
same,TGI,SR leukemia,> 100 µM
same,TGI,BT-549 breast,> 100 µM
same,TGI,HCT-116 colon,30.4 µM
same,TGI,K-562 leukemia,> 100 µM
same,TGI,OVCAR-8 ovarian,80.9 µM
same,TGI,RPMI-8226 leukemia,> 100 µM
same,TGI,DU-145 prostate,> 100 µM
same,TGI,SW-620 colon,47.7 µM
same,TGI,SK-MEL-28 melanoma,> 100 µM
same,TGI,HCT-15 colon,> 100 µM
same,TGI,OVCAR-5 ovarian,> 100 µM
same,TGI,786-0 renal,24.6 µM
same,TGI,HOP-92 NSCLC,61.9 µM
same,TGI,MDA-N,> 100 µM
same,TGI,SNB-19 CNS,> 100 µM
same,TGI,HOP-62 NSCLC,37.4 µM
same,TGI,MOLT-4 leukemia,> 100 µM
same,TGI,SK-OV-3 ovarian,67.2 µM
same,TGI,UACC-62 melanoma,44.7 µM
C=CCCC(CCC=C)(C(=O)O)C(=O)O,TGI,TK-10 renal,> 100 µM
same,TGI,NCI-H522 lung,> 100 µM
same,TGI,SF-295 CNS,> 100 µM
same,TGI,SN12C renal,> 100 µM
same,TGI,SF-539 CNS,> 100 µM
same,TGI,SNB-75 CNS,> 100 µM
same,TGI,SF-268 CNS,> 100 µM
same,TGI,MCF7 breast,> 100 µM
same,TGI,HS 578T breast,> 100 µM
same,TGI,EKVX NSCLC,> 100 µM
same,TGI,NCI/ADR-RES ovarian,> 100 µM
same,TGI,LOX IMVI melanoma,> 100 µM
same,TGI,IGROV1 ovarian,> 100 µM
same,TGI,UO-31 renal,> 100 µM
same,TGI,HL-60(TB) leukemia,> 100 µM
same,TGI,MDA-MB-435,> 100 µM
same,TGI,HCC-2998 colon,> 100 µM
same,TGI,M14 melanoma,> 100 µM
same,TGI,SK-MEL-5 melanoma,> 100 µM
same,TGI,A549 NSCLC,> 100 µM
same,TGI,NCI-H460 lung,> 100 µM
same,TGI,HT29 colon,> 100 µM
same,TGI,U251 CNS,> 100 µM
same,TGI,COLO 205 colon,> 100 µM
same,TGI,MALME-3M melanoma,> 100 µM
same,TGI,PC-3 prostate,> 100 µM
same,TGI,MDA-MB-231 breast,> 100 µM
same,TGI,OVCAR-3 ovarian,> 100 µM
same,TGI,SK-MEL-2 melanoma,> 100 µM
same,TGI,NCI-H23 lung,> 100 µM
same,TGI,KM12 colon,> 100 µM
same,TGI,CCRF-CEM leukemia,> 100 µM
same,TGI,ACHN renal,> 100 µM
same,TGI,UACC-257 melanoma,> 100 µM
same,TGI,SR leukemia,> 100 µM
same,TGI,BT-549 breast,> 100 µM
same,TGI,HCT-116 colon,> 100 µM
same,TGI,K-562 leukemia,> 100 µM
same,TGI,OVCAR-8 ovarian,> 100 µM
same,TGI,RPMI-8226 leukemia,> 100 µM
same,TGI,RXF 393 renal,> 100 µM
same,TGI,DU-145 prostate,> 100 µM
same,TGI,SW-620 colon,> 100 µM
same,TGI,SK-MEL-28 melanoma,> 100 µM
same,TGI,HCT-15 colon,> 100 µM
same,TGI,OVCAR-5 ovarian,> 100 µM
same,TGI,786-0 renal,> 100 µM
same,TGI,MDA-N,> 100 µM
same,TGI,SNB-19 CNS,> 100 µM
same,TGI,HOP-62 NSCLC,> 100 µM
same,TGI,MOLT-4 leukemia,> 100 µM
same,TGI,UACC-62 melanoma,> 100 µM
CN(C)CCCNC(=S)S,TGI,TK-10 renal,> 100 µM
same,TGI,NCI-H522 lung,> 100 µM
same,TGI,SF-295 CNS,> 100 µM
same,TGI,SN12C renal,> 100 µM
same,TGI,OVCAR-4 ovarian,> 100 µM
same,TGI,SF-539 CNS,> 100 µM
same,TGI,SF-268 CNS,> 100 µM
same,TGI,MCF7 breast,> 100 µM
same,TGI,HS 578T breast,> 100 µM
same,TGI,EKVX NSCLC,> 100 µM
same,TGI,NCI/ADR-RES ovarian,> 100 µM
same,TGI,NCI-H226 lung,> 100 µM
same,TGI,LOX IMVI melanoma,> 100 µM
same,TGI,IGROV1 ovarian,> 100 µM
same,TGI,HL-60(TB) leukemia,> 100 µM
same,TGI,MDA-MB-435,> 100 µM
same,TGI,M14 melanoma,> 100 µM
same,TGI,SK-MEL-5 melanoma,> 100 µM
same,TGI,A549 NSCLC,> 100 µM
same,TGI,NCI-H460 lung,> 100 µM
same,TGI,HT29 colon,> 100 µM
same,TGI,U251 CNS,> 100 µM
same,TGI,COLO 205 colon,> 100 µM
same,TGI,MALME-3M melanoma,> 100 µM
same,TGI,PC-3 prostate,> 100 µM
same,TGI,MDA-MB-231 breast,> 100 µM
same,TGI,OVCAR-3 ovarian,> 100 µM
same,TGI,SK-MEL-2 melanoma,> 100 µM
same,TGI,A498 renal,> 100 µM
same,TGI,NCI-H23 lung,> 100 µM
same,TGI,CAKI-1 renal,> 100 µM
same,TGI,KM12 colon,> 100 µM
same,TGI,CCRF-CEM leukemia,> 100 µM
same,TGI,ACHN renal,> 100 µM
same,TGI,UACC-257 melanoma,> 100 µM
same,TGI,SR leukemia,> 100 µM
same,TGI,BT-549 breast,> 100 µM
same,TGI,HCT-116 colon,> 100 µM
same,TGI,K-562 leukemia,> 100 µM
same,TGI,OVCAR-8 ovarian,> 100 µM
same,TGI,RPMI-8226 leukemia,> 100 µM
same,TGI,RXF 393 renal,> 100 µM
same,TGI,DU-145 prostate,> 100 µM
same,TGI,SW-620 colon,> 100 µM
same,TGI,SK-MEL-28 melanoma,> 100 µM
same,TGI,HCT-15 colon,> 100 µM
same,TGI,OVCAR-5 ovarian,> 100 µM
same,TGI,786-0 renal,> 100 µM
same,TGI,HOP-92 NSCLC,> 100 µM
same,TGI,MDA-N,> 100 µM
same,TGI,SNB-19 CNS,> 100 µM
same,TGI,HOP-62 NSCLC,> 100 µM
same,TGI,MOLT-4 leukemia,> 100 µM
same,TGI,SK-OV-3 ovarian,> 100 µM
